The subject of one series is MV4-11 xenograft tumors. The series is described as follows: In vivo anti-proliferative assay, mouse xenograft model of MLL-rearranged leukemia. Details: species or system female nude mice. The following applies: 21 days; for TGI compared to controls: non-statistically significant. The protocol:
(§1) In Vivo Anti-Proliferative Assay. The in vivo anti-tumor activity of the compounds of the present invention were assessed in a mouse xenograft model of MLL-rearranged leukemia. Four groups of 20 (Groups 1, 3, 4 and 5), and one group of 8 (Group 2) female nude mice (average weight of 0.023 kg) bearing MV4-11 xenograft tumors of sizes ranging from 80-120 mm^3 were implanted subcutaneously with minipumps (Alzet Model 2001). Group 1 received vehicle only from the pump. Group 2 received vehicle only from the pump plus ip injections tid (8 hours apart) of vehicle. […] Pumps were designed to last for 7 days and were exchanged twice to give total infusion duration of 21 days exposure. […] Tumor size was measured every 4 days. After 21 days the study was terminated, and mean TGI calculated.

Series [1] in a line: Plasma levels of Compound 2 in the xenograft study. The following applies: female, nude, mouse; for concentration at 21 day: subcutaneous, read-out: average plasma level from the last sampling on day 21. The format is in vivo, female nude mice. How it is done:
as §1, with “Four” for “In Vivo Anti-Proliferative Assay. The in vivo anti-tumor activity of the compounds of the present invention were assessed in a mouse xenograft model of MLL-rearranged leukemia. Four”

The next series concerns Jurkat. The series is described as follows: In vitro anti-proliferative assay, Jurkat. The format is cell-based, human. Particulars: non-MLL-rearranged, up to 14 days. The protocol:
(§2) In Vitro Anti-Proliferative Assay. The potency and selectivity of the anti-proliferative activity of the compounds of the present invention were assessed using a panel of MLL-rearranged and non-MLL-rearranged human leukemia cell lines. The MLL-rearranged panel included cell lines derived from ALL, AML and biphenotypic leukemias harboring MLL-AF4, MLL-AF9 or MLL-ENL fusions. These cell lines recruit DOT1L. […] Exponentially growing cells were plated, in triplicate, in 96-well plates at a density of 3×10^4 cells/well in a final volume of 150 μl. […] Anti-proliferative activity was determined by cell viability measurements every 3-4 days for up to 14 days.

In series [2] the test system is EOL-1 cells which express an MLL-PTD. The series is described as follows: In vitro anti-proliferative assay, EOL-1. The following applies: Homo sapiens, EOL1, 336 h; EOL-1, MLL-PTD; up to 14 days. The format is cell-based. How it is done:
as §2

The subject of a further series is HL-60. The series is described as follows: In vitro anti-proliferative assay, HL-60. The format is cell-based, human. Particulars: HL-60, non-MLL-rearranged; up to 14 days. The protocol: as §2

As a reminder, the Cmax is the highest concentration seen after dosing. For orientation: pIC50 means the IC50 on a negative log10 scale, so that one unit is a factor of ten.

pIC50: −log10 of the molar value. Where two headings read alike, the source gives them in different places. A value given as a limit tells only on which side of the number the result lay.

Turning to `CC(C)N(C[C@H]1O[C@@H](n2cnc3c(N)ncnc32)[C@H](O)[C@@H]1O)[C@H]1C[C@@H](CCc2nc3cc(C(C)(C)C)ccc3[nH]2)C1` [Compound 2, (2R,3R,4S,5R)-2-(6-amino-9H-purin-9-yl)-5-((((1r,3S)-3-(2-(5-(tert-butyl)-1H-benzo[d]imidazol-2-yl)ethyl)cyclobutyl)(isopropyl)amino)methyl)tetrahydrofuran-3,4-diol], the “TGI compared to controls” value was 43% in the series on MV4-11 xenograft tumors (56 mg/kg/day minipump (Group 5)) and 38% with MV4-11 xenograft tumors (112 mg/kg/day minipump (Group 4)). Further, the “TGI compared to the controls” value with MV4-11 xenograft tumors (Group 3: 112 mg/kg/day minipump plus ip 20 mg/kg tid, total 172 mg/kg/day, statistically significant) is above 70%. The Cmax in series [1] (Group 3, ip 20 mg/kg tid plus 112 mg/kg/day minipump, read-out: Cmax after each of the tid ip injections) was 4.2 to 5 µg/mL. Moreover, the concentration at 21 day was 0.099 µg/mL in series [1] (Group 4, 112 mg/kg/day minipump) and 0.052 µg/mL in series [1] (Group 5, 56 mg/kg/day minipump). The anti-proliferative activity entry in the series on Jurkat and in the series with HL-60 was “no activity” in each case. This molecule also showed a pIC50 in series [2] of 7.96.

The values above are taken from patent US8580762B2, “Substituted purine and 7-deazapurine compounds” (Epizyme, Inc., priority 2010, dated 2013).
